Molecules are shown by their SMILES.

For the assay, the target named is T1, HMG-CoA reductase (Homo sapiens, UniProt P04035).
T1 construct: endogenous in cells; host or cells: HepG2 (Korea Cell Line Bank)
T1 sequence (P04035 1-888): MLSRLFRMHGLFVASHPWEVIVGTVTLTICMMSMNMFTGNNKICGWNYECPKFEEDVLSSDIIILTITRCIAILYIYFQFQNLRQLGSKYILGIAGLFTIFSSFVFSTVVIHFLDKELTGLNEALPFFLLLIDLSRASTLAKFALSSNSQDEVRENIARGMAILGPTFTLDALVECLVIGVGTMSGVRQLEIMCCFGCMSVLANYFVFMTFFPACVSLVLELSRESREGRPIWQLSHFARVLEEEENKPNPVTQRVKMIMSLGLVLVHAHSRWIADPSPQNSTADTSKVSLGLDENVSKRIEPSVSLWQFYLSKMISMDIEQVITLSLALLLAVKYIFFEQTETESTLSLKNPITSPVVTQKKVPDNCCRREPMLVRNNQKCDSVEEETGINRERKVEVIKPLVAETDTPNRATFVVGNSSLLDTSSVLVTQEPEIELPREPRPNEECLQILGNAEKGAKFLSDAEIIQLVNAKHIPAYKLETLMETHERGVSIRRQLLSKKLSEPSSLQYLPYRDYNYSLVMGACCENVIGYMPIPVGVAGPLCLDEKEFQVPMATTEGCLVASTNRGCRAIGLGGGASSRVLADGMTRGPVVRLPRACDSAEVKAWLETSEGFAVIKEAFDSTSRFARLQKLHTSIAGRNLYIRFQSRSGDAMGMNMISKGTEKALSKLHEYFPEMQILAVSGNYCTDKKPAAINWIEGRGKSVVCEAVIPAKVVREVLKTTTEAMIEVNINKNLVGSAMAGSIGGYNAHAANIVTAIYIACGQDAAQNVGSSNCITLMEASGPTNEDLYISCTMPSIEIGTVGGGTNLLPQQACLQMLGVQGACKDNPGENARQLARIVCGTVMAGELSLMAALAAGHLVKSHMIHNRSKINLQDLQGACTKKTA
The experiment in a line: HMG-CoA reductase (HMGCR) degradation in HepG2 cells by western blotting. It is filed as cell-based. The following applies: treated for 18 hours, ratio of HMG-CoA reductase to GAPDH, read-out: DC50. As to the method:
HepG2, a human liver cancer cell line, was purchased from the Korea Cell Line Bank (KCLB), Seoul, Korea. The passage in cell culture was maintained at P105 to P110.
The compounds of the present invention were completely dissolved in DMSO and used in the experiment. 2×10^5 cells were seeded for each well of a 12-well plate (SPL), and the cells were cultured in the culture medium in a total volume of 2 ml. Each of the compounds of the present invention and comparative compounds was diluted three folds from the highest concentration of 3 μM to the lowest concentration in 10 points and treated for 18 hours.
Each of the compounds the present invention and comparative compounds was diluted three folds from the highest concentration of 3 μM to the lowest concentration of […] in 10 points and was treated for 18 hours.
For SDS-PAGE and Western blotting, 1×RIPA lysis buffer (Rockland, Cat. No. MB-030-0050; Lot no. 39751), 100× Protease Inhibitor Cocktail (Quartett, Cat. No. PPI1015; Lot no. PCO50038424), Pierce™ BCA protein assay kit (ThermoScientific, Cat. No. 23225; Lot no. UC276876), albumin standard (ThermoScientific, Cat. No. 23209; Lot no. UB269561), 4-15% Mini-PROTEAN TGX stain-free gel (Bio-rad, Cat. No. 4568085; Lot no. L007041B), 10× Tris/Glycine/SDS buffer (Bio-rad, Cat. No. 1610732; Lot no. 10000044375B); 10×TBS (Bio-rad, Cat. No. 1706435; Lot no. 1000045140B), 10% Tween 20 (Cat. No. 1610781; Lot no. L004152B), Color protein standard broad range (NEB, Cat. No. P7719S; Lot no. 10040349), 4× Laemmli sample buffer (Bio-rad, Cat. No. 1610747; Lot no. L004133B), β-mercaptoethanol (Sigma-Aldrich, Cat. No. M3148; Lot no. 60-24-2), SuperBlock™ T20 (TBS) blocking buffer (ThermoScientific, Cat. No. 37536; Lot no. UC282578), 1M sodium azide solution (Sigma-Aldrich, Cat. No. 08591-1 mL-F; Lot no. BCBV4989), α-Rabbit pAb to Ms IgG (abcam, Cat. No. ab97046; Lot no. GR3252115-1), α-Goat pAb to Rb IgG (CST, Cat. No. 7074S; Lot no. 28), α-GAPDH (abcam, Cat. No. ab8245), α-HMGCR (GeneTex, Cat. No. GTX54088; Lot no. 821903509), ECL™ Prime western blotting reagents (GE Healthcare, Cat. No. RPN2232; Lot no. 17001655), Ponceau S solution (Sigma-Aldrich, Cat. No. P7170; Lot no. SLBV4112), Difco™ Skim milk (BD, Cat. No. 232100; Lot no. 8346795), and iBlot® 2 NC Regular stacks (Invitrogen, Cat. No. IB23001; Lot no. 2NR110619-02), were used.
For cell harvesting, the cells were first separated from the plate using trypsin and then washed with the medium and PBS. Specifically, the medium was suctioned off and washed with 1 mL of PBS, and PBS was suctioned off. The cells were treated with 0.5 mL TrypLE™ Express at 37° C. for 7 minutes to separate the cells, and then 0.5 mL of complete medium was added to collect 1 mL of cell culture solution. Then, 1 mL of the cell collection solution was centrifuged at 8,000 rpm for 120 seconds, and the supernatant was removed. After washing with 0.2 mL of PBS, the PBS was removed.
For cell lysis, a lysis buffer was added and cell debris was removed to obtain a cell lysate. Specifically, the cells were treated with 70 μL of 1×RIPA buffer containing a protease inhibitor and incubated for 30 minutes on ice. Then, the cells were centrifuged at 4° C. and 15,000 rpm for 10 minutes to obtain a cell lysate.
Then, a standard curve was obtained using the BCA assay, and the protein mass in the lysate was quantified by substituting the curve. The mixture was incubated at 37° C. for 30 minutes using 20 μL of standard or sample solution, and 200 μL of BCA or Bradford solution, and measured at 562 nm absorbance. Samples were prepared by adding 4× sample buffer so that the quantity of protein added to each well was 15 μg.
Sodium dodecyl sulfate polyacrylamide gel electrophoresis (SDS-PAGE) was performed by setting a running time of 100 minutes at 120 V on a 4-15% Mini-PROTEAN TGX stain-free gel (15 well). Transferring was performed on iBlot® 2 NC Mini stacks at P0 mode of the dry blotting system. […]
On to `Cc1ncsc1-c1ccc(CNC(=O)[C@@H]2C[C@@H](O)CN2C(=O)[C@@H](NC(=O)COCCOCCNC(=O)CCC(C)(C)C(=O)O[C@H]2C[C@@H](C)C=C3C=C[C@H](C)[C@H](CC[C@@H]4C[C@@H](O)CC(=O)O4)[C@H]32)C(C)(C)C)cc1` [Compound 9, (S)-(1S,3R,7S,8S,8aR)-8-(2-((2R,4R)-4-hydroxy-6-oxotetrahydro-2H-pyran-2-yl)ethyl)-3,7-dimethyl-1,2,3,7,8,8a-hexahydronaphthalen-1-yl 3-((2S,4R)-4-hydroxy-2-((4-(4-methylthiazol-5-yl)benzyl)carbamoyl)pyrrolidine-1-carbonyl)-2,2,17,17-tetramethyl-5,14-dioxo-7,10-dioxa-4,13-diazaoctadecan-18-oate], for which the DC50 is under 50 nM.

Regarding `Cc1ncsc1-c1ccc(CNC(=O)[C@@H]2C[C@@H](O)CN2C(=O)[C@@H](NC(=O)COCCOCCOCCNC(=O)CCC(C)(C)C(=O)O[C@H]2C[C@@H](C)C=C3C=C[C@H](C)[C@H](CC[C@@H]4C[C@@H](O)CC(=O)O4)[C@H]32)C(C)(C)C)cc1` [Compound 10], the DC50 was under 50 nM.

For the compound `Cc1ncsc1-c1ccc(CNC(=O)[C@@H]2C[C@@H](O)CN2C(=O)[C@@H](NC(=O)COCCOCCOCCOCCNC(=O)CCC(C)(C)C(=O)O[C@H]2C[C@@H](C)C=C3C=C[C@H](C)[C@H](CC[C@@H]4C[C@@H](O)CC(=O)O4)[C@H]32)C(C)(C)C)cc1` [Compound 11, (S)-(1S,3R,7S,8S,8aR)-8-(2-((2R,4R)-4-hydroxy-6-oxotetrahydro-2H-pyran-2-yl)ethyl)-3,7-dimethyl-1,2,3,7,8,8a-hexahydronaphthalen-1-yl 3-((2S,4R)-4-hydroxy-2-((4-(4-methylthiazol-5-yl)benzyl)carbamoyl)pyrrolidine-1-carbonyl)-2,2,23,23-tetramethyl-5,20-dioxo-7,10,13,16-tetraoxa-4,19-diazatetracosan-24-oate], the DC50 was under 50 nM.

On to `Cc1ncsc1-c1ccc(CNC(=O)[C@@H]2C[C@@H](O)CN2C(=O)[C@@H](NC(=O)COCCOCCOCCOCCOCCNC(=O)CCC(C)(C)C(=O)O[C@H]2C[C@@H](C)C=C3C=C[C@H](C)[C@H](CC[C@@H]4C[C@@H](O)CC(=O)O4)[C@H]32)C(C)(C)C)cc1` [Compound 12, (S)-(1S,3R,7S,8S,8aR)-8-(2-((2R,4R)-4-hydroxy-6-oxotetrahydro-2H-pyran-2-yl)ethyl)-3,7-dimethyl-1,2,3,7,8,8a-hexahydronaphthalen-1-yl 3-((2S,4R)-4-hydroxy-2-((4-(4-methylthiazol-5-yl)benzyl)carbamoyl)pyrrolidine-1-carbonyl)-2,2,26,26-tetramethyl-5,23-dioxo-7,10,13,16,19-pentaoxa-4,22-diazaheptacosan-27-oate], for which the DC50 was under 50 nM.

Take `C[C@H]1C=C2C=C[C@H](C)[C@H](CC[C@H]3C[C@H](O)CC(=O)O3)[C@H]2[C@@H](OC(=O)NCCOCCOCCOCC(=O)NCC(C)(C)C)C1` [Compound 13, (1S,3R,7S,8S,8aR)-8-(2-((2S,4S)-4-hydroxy-6-oxotetrahydro-2H-pyran-2-yl)ethyl)-3,7-dimethyl-1,2,3,7,8,8a-hexahydronaphthalen-1-yl (14,14-dimethyl-11-oxo-3,6,9-trioxa-12-azapentadecyl) carbamate]: the DC50 was over 500 nM.

As to `Cc1ncsc1-c1ccc(CNC(=O)[C@@H]2C[C@@H](O)CN2C(=O)[C@@H](NC(=O)COCCNC(=O)O[C@H]2C[C@@H](C)C=C3C=C[C@H](C)[C@H](CC[C@@H]4C[C@@H](O)CC(=O)O4)[C@H]32)C(C)(C)C)cc1` [Compound 14, (1S,3R,7S,8S,8aR)-8-(2-((2R,4R)-4-hydroxy-6-oxotetrahydro-2H-pyran-2-yl)ethyl)-3,7-dimethyl-1,2,3,7,8,8a-hexahydronaphthalen-1-yl (2-(2-(((S)-1-((2S,4R)-4-hydroxy-2-((4-(4-methylthiazol-5-yl)benzyl)carbamoyl)pyrrolidin-1-yl)-3,3-dimethyl-1-oxobutan-2-yl)amino)-2-oxoethoxy)ethyl)carbamate], the DC50 was in the range of 50 to 500 nM.

Consider `Cc1ncsc1-c1ccc(CNC(=O)[C@@H]2C[C@@H](O)CN2C(=O)[C@@H](NC(=O)COCCOCCNC(=O)O[C@H]2C[C@@H](C)C=C3C=C[C@H](C)[C@H](CC[C@@H]4C[C@@H](O)CC(=O)O4)[C@H]32)C(C)(C)C)cc1` [Compound 15, (1S,3R,7S,8S,8aR)-8-(2-((2R,4R)-4-hydroxy-6-oxotetrahydro-2H-pyran-2-yl)ethyl)-3,7-dimethyl-1,2,3,7,8,8a-hexahydronaphthalen-1-yl (2-(2-(2-(((S)-1-((2S,4R)-4-hydroxy-2-((4-(4-methylthiazol-5-yl)benzyl)carbamoyl)pyrrolidin-1-yl)-3,3-dimethyl-1-oxobutan-2-yl)amino)-2-oxoethoxy)ethoxy)ethyl)carbamate], for which the DC50 is under 50 nM.

For `Cc1ncsc1-c1ccc(CNC(=O)[C@@H]2C[C@@H](O)CN2C(=O)[C@@H](NC(=O)COCCOCCOCCNC(=O)O[C@H]2C[C@@H](C)C=C3C=C[C@H](C)[C@H](CC[C@@H]4C[C@@H](O)CC(=O)O4)[C@H]32)C(C)(C)C)cc1` [Compound 16, (1S,3R,7S,8S,8aR)-8-(2-((2R,4R)-4-hydroxy-6-oxotetrahydro-2H-pyran-2-yl)ethyl)-3,7-dimethyl-1,2,3,7,8,8a-hexahydronaphthalen-1-yl ((S)-13-((2S,4R)-4-hydroxy-2-((4-(4-methylthiazol-5-yl)benzyl)carbamoyl)pyrrolidine-1-carbonyl)-14,14-dimethyl-11-oxo-3,6,9-trioxa-12-azapentadecyl)carbamate], the DC50 is under 50 nM.

The values are drawn from US12479840B2, “HMG-CoA reductase degradation inducing compound” (Uppthera, priority 2020, dated 2025).
